What was measured:
[1] = tested on: post-myocardial infarction patients with elevated hsCRP
[2] = tested on: incident cancers in post-myocardial infarction patients with hsCRP ≥2 mg/L; experiment: CANTOS trial: incident cancers, cancer mortality, canakinumab vs placebo; assay type: in vivo, human

canakinumab: high-affinity, fully human monoclonal antibody of the IgG1/k to interleukin-1β; INN number 8836
all-cause mortality, HR ([1]; canakinumab groups vs placebo): 0.94
non-cardiovascular mortality, HR ([1]; canakinumab groups vs placebo): 0.97
Anemia (AE reports) ([1]; in vivo): 275 (1.11)
Erythrocytes (at 12 months): High (>6.8) ([1]; in vivo): 4 (0.07) N (%)
Erythrocytes (at 12 months): Low (<3.3) ([1]; in vivo): 19 ( 0.32) N (%)
Erythrocytes (at 12 months): Normal (3.3-6.8) ([1]; in vivo): 6002 (99.6) N (%)
Leucocytes (at 12 months): High (>15,000) ([1]; in vivo): 20 (0.33) N (%)
Leucocytes (at 12 months): Low (<3000) ([1]; in vivo): 27 (0.45) N (%)
Leucocytes (at 12 months): Normal (3000-<15000) ([1]; in vivo): 5978 (99.2) N (%)
Leukopenia (AE reports) ([1]; in vivo): 100 (0.40)
Neutropenia (AE reports) ([1]; in vivo): 25 (0.10)
Neutrophils (at 12 months): Grade 1 (1500-<LLN) ([1]; in vivo): 14 (0.24) N (%)
Neutrophils (at 12 months): Grade 2 (1000-<1500) ([1]; in vivo): 28 (0.47) N (%)
Neutrophils (at 12 months): Grade 3 (500-<1000) ([1]; in vivo): 5 (0.08) N (%)
Neutrophils (at 12 months): Grade 4 (<500) ([1]; in vivo): 0 (0.00) N (%)
Neutrophils (at 12 months): Normal N (%) ([1]; in vivo): 5891 (99.2) N (%)
Platelets (at 12 months): Grade 1 (75,000-<LLN) ([1]; in vivo): 782 (13.0) N (%)
Platelets (at 12 months): Grade 2 (50,000-<75,000) ([1]; in vivo): 10 (0.17) N (%)
Platelets (at 12 months): Grade 3 (25,000-<50,000) ([1]; in vivo): 4 (0.07) N (%)
Platelets (at 12 months): Grade 4 (<25,000) ([1]; in vivo): 0 (0.00) N (%)
Platelets (at 12 months): Normal N (%) ([1]; in vivo): 5216 (86.8) N (%)
Thrombocytopenia (AE reports) ([1]; in vivo): 150 (0.60)
Serious tuberculosis infections ([1]; similar rates in canakinumab and placebo treated groups): 0.06%
Breast, incidence rate (number) ([2]; 50 mg SC q 3 months): 0.09(7) per 100 person years
Central Nervous System, incidence rate (number) ([2]; 50 mg SC q 3 months): 0.04(3) per 100 person years
Endocrine: Adrenal, incidence rate (number) ([2]; 50 mg SC q 3 months): 0 per 100 person years
Endocrine: Thyroid, incidence rate (number) ([2]; 50 mg SC q 3 months): 0.01(1) per 100 person years
Gastrointenstinal: Appendiceal, incidence rate (number) ([2]; 50 mg SC q 3 months): 0 per 100 person years
Gastrointenstinal: Biliary, incidence rate (number) ([2]; 50 mg SC q 3 months): 0.03(2) per 100 person years
Gastrointenstinal: Colorectal, incidence rate (number) ([2]; 50 mg SC q 3 months): 0.25(20) per 100 person years
Gastrointenstinal: Esophageal, incidence rate (number) ([2]; 50 mg SC q 3 months): 0.08(6) per 100 person years
Gastrointenstinal: Gastric, incidence rate (number) ([2]; 50 mg SC q 3 months): 0.04(3) per 100 person years
Gastrointenstinal: Oral cavity/tongue, incidence rate (number) ([2]; 50 mg SC q 3 months): 0.03(2) per 100 person years
Gastrointenstinal: Pancreatic, incidence rate (number) ([2]; 50 mg SC q 3 months): 0.04(3) per 100 person years
Genitourinary: Bladder, incidence rate (number) ([2]; 50 mg SC q 3 months): 0.10(8) per 100 person years
Genitourinary: Cervical, incidence rate (number) ([2]; 50 mg SC q 3 months): 0 per 100 person years
Genitourinary: Endometrial/Uterine, incidence rate (number) ([2]; 50 mg SC q 3 months): 0.03(2) per 100 person years
Genitourinary: Ovarian, incidence rate (number) ([2]; 50 mg SC q 3 months): 0 per 100 person years
Genitourinary: Prostate, incidence rate (number) ([2]; 50 mg SC q 3 months): 0.19(15) per 100 person years
Genitourinary: Testicular, incidence rate (number) ([2]; 50 mg SC q 3 months): 0 per 100 person years
Hematopoetic: Leukemia, incidence rate (number) ([2]; 50 mg SC q 3 months): 0.01(1) per 100 person years
Hematopoetic: Lymphoma, incidence rate (number) ([2]; 50 mg SC q 3 months): 0.04(3) per 100 person years
Hematopoetic: Multiple myeloma, incidence rate (number) ([2]; 50 mg SC q 3 months): 0 per 100 person years
Kidney, incidence rate (number) ([2]; 50 mg SC q 3 months): 0.13(10) per 100 person years
Liver, incidence rate (number) ([2]; 50 mg SC q 3 months): 0.04(3) per 100 person years
Lung Cancers: Adenocarcinoma or poorly differentiated large cell carcinoma or unspecified, incidence rate (number) ([2]; 50 mg SC q 3 months): 0.33 per 100 person years
Lung Cancers: Pleural cancer, incidence rate (number) ([2]; 50 mg SC q 3 months): 0 per 100 person years
Lung Cancers: Small cell lung cancer, incidence rate (number) ([2]; 50 mg SC q 3 months): 0.01 (1) per 100 person years
Lung Cancers: Squamous cell lung carcinoma, incidence rate (number) ([2]; 50 mg SC q 3 months): 0.01 (1) per 100 person years
Other cancer sites: Other, incidence rate (number) ([2]; 50 mg SC q 3 months): 0.08(6) per 100 person years
Sarcoma / Bone, incidence rate (number) ([2]; 50 mg SC q 3 months): 0.01(1) per 100 person years
Skin: Basal cell carcinoma, incidence rate (number) ([2]; 50 mg SC q 3 months): 0.28(22) per 100 person years
Skin: Melanoma, incidence rate (number) ([2]; 50 mg SC q 3 months): 0.08(6) per 100 person years
Skin: Other, incidence rate (number) ([2]; 50 mg SC q 3 months): 0 per 100 person years
Skin: Squamous cell skin cancer, incidence rate (number) ([2]; 50 mg SC q 3 months): 0.10(8) per 100 person years
Lung Cancers: Adenocarcinoma or poorly differentiated large cell carcinoma or unspecified, incidence rate (number) ([2]; 50 mg SC q 3 months, listed as Canakinumab): 0.33 (26) per 100 person years
Breast, incidence rate (number) ([2]; 150 mg SC q 3 months): 0.05(4) per 100 person years
Central Nervous System, incidence rate (number) ([2]; 150 mg SC q 3 months): 0.05(4) per 100 person years
Endocrine: Adrenal, incidence rate (number) ([2]; 150 mg SC q 3 months): 0.01(1) per 100 person years
Endocrine: Thyroid, incidence rate (number) ([2]; 150 mg SC q 3 months): 0.02(2) per 100 person years
Gastrointenstinal: Appendiceal, incidence rate (number) ([2]; 150 mg SC q 3 months): 0 per 100 person years
Gastrointenstinal: Biliary, incidence rate (number) ([2]; 150 mg SC q 3 months): 0.03(3) per 100 person years
Gastrointenstinal: Colorectal, incidence rate (number) ([2]; 150 mg SC q 3 months): 0.19(16) per 100 person years
Gastrointenstinal: Esophageal, incidence rate (number) ([2]; 150 mg SC q 3 months): 0.03(3) per 100 person years
Gastrointenstinal: Gastric, incidence rate (number) ([2]; 150 mg SC q 3 months): 0.02(2) per 100 person years
Gastrointenstinal: Oral cavity/tongue, incidence rate (number) ([2]; 150 mg SC q 3 months): 0.05(4) per 100 person years
Gastrointenstinal: Pancreatic, incidence rate (number) ([2]; 150 mg SC q 3 months): 0.06(5) per 100 person years
Genitourinary: Bladder, incidence rate (number) ([2]; 150 mg SC q 3 months): 0.08(7) per 100 person years
Genitourinary: Cervical, incidence rate (number) ([2]; 150 mg SC q 3 months): 0.01(1) per 100 person years
Genitourinary: Endometrial/Uterine, incidence rate (number) ([2]; 150 mg SC q 3 months): 0 per 100 person years
Genitourinary: Ovarian, incidence rate (number) ([2]; 150 mg SC q 3 months): 0.01(1) per 100 person years
Genitourinary: Prostate, incidence rate (number) ([2]; 150 mg SC q 3 months): 0.16(14) per 100 person years
Genitourinary: Testicular, incidence rate (number) ([2]; 150 mg SC q 3 months): 0.01(1) per 100 person years
Hematopoetic: Leukemia, incidence rate (number) ([2]; 150 mg SC q 3 months): 0.02(2) per 100 person years
Hematopoetic: Lymphoma, incidence rate (number) ([2]; 150 mg SC q 3 months): 0.05(4) per 100 person years
Hematopoetic: Multiple myeloma, incidence rate (number) ([2]; 150 mg SC q 3 months): 0 per 100 person years
Kidney, incidence rate (number) ([2]; 150 mg SC q 3 months): 0.07(6) per 100 person years
Liver, incidence rate (number) ([2]; 150 mg SC q 3 months): 0.06(5) per 100 person years
Lung Cancers: Adenocarcinoma or poorly differentiated large cell carcinoma or unspecified, incidence rate (number) ([2]; 150 mg SC q 3 months): 0.27 per 100 person years
